Measured values taken from patent US4626547A, “Antibiotic AM-2604-A, an anti-trichomonas agent, anti-caccidium agent, anti-viral agent and anti-fungal agent containing the same and methods of use of the same” (The Kitasato Institute, priority 1982, dated 1986).
Converted amounts (≈) assume the structure as drawn. “Also recorded” adds a separate entry of the source.

Tests used:
[1] = system: Herpes virus Type No. 2 (HSV-2); test: Antiviral plaque-formation reduction in CE cells; type: cell-based; conditions: Human alphaherpesvirus 2, 72 h, 20 h pretreatment, 3 days, read-out: 50% Effective Dose (ED50)
[2] = system: Herpes virus Type No. 1 (HSV-1); test: Antiviral plaque-formation reduction in CE cells; type: cell-based; conditions: Human alphaherpesvirus 1, 72 h, 20 h pretreatment, 3 days, read-out: 50% Effective Dose (ED50)
Trichomonas foetus = test: Infection-therapy test of Trichomonas foetus-infected mice; type: in vivo, mice infected with Trichomonas foetus; conditions: for Number of Mice That Died / Cured Mice / Living Mice with Formation of Ascites / Mice with Trichomonas foetus: oral; for Cured Mice / Living Mice with Formation of Ascites / Mice with Trichomonas foetus: 7 days
Description: An infection-therapy test of Trichomonas foetus-infected mice was performed as follows:
Mice were divided into groups of ten. Trichomonas foetus was cultivated at 37° C. on a Trichocel broth with 5% inactivated calf serum added (produced by BBL Co.) for 48 hours. One milliliter of the Trichomonas foetus-containing solution (4×10^6 cells/ml) was injected intraperitoneally into mice having a weight of about 20 g. […]
The infection-therapy effect was judged as follows:
Seven days after the injection of Trichomonas foetus, the formation of ascites was examined. In the case of mice in which ascites was formed, the ascites were taken out and the presence of Trichomonas foetus was examined using a microscope.

[3] = system: Western equine encephalitis virus (WEE); test: microbe, parasite or virus in culture; type: cell-based; conditions: 48 h, read-out: 50% Effective Dose (ED50)
Xanthomonas oryzae = test: microbe, parasite or virus in culture; type: cell-based
Piricularia oryzae = test: microbe, parasite or virus in culture; type: cell-based
Sindbis virus (Sb) = test: Antiviral plaque-formation reduction in CE cells; type: cell-based; conditions: 48 h, 20 h pretreatment, 2 days, read-out: 50% Effective Dose (ED50)
[4] = system: Micrococcus luteus ATCC 9341; test: MIC by agar dilution method; type: cell-based; conditions: ATCC9341
Description: (§1) The minimum inhibitory concentrations (MIC) of the antibiotic substance as determined by the agar dilution method are shown in Table 1 below.

Microsporum gypseum = test: MIC by agar dilution method; type: cell-based; conditions: Nannizzia gypsea
Description: as §1

[5] = system: Mycobacterium smegmatis ATCC 607; test: MIC by agar dilution method; type: cell-based; conditions: Mycolicibacterium smegmatis, ATCC607
Description: as §1

[6] = system: Trichophyton interdigitale; test: MIC by agar dilution method; type: cell-based
Description: as §1

Escherichia coli NIHJ = test: MIC by agar dilution method; type: cell-based
Description: as §1

Aspergillus niger = test: MIC by agar dilution method; type: cell-based
Description: as §1

Candida albicans = test: MIC by agar dilution method; type: cell-based
Description: as §1

Monilinia fructicola = test: MIC by agar dilution method; type: cell-based
Description: as §1

Saccharomyces sake = test: MIC by agar dilution method; type: cell-based
Description: as §1

[7] = system: Proteus vulgarius IFO 3167; test: MIC by agar dilution method; type: cell-based
Description: as §1

[8] = system: Staphylococcus aureus ATCC 65389; test: MIC by agar dilution method; type: cell-based; conditions: ATCC65389
Description: as §1

Fusarium oxysporum = test: MIC by agar dilution method; type: cell-based
Description: as §1

Botrytis cinerea = test: MIC by agar dilution method; type: cell-based
Description: as §1

Mucor racemosus = test: MIC by agar dilution method; type: cell-based
Description: as §1

Alternaria kikuchiana = test: MIC by agar dilution method; type: cell-based
Description: as §1

[9] = system: Bacillus subtilis ATCC 6633; test: MIC by agar dilution method; type: cell-based; conditions: ATCC6633
Description: as §1

Solubility in solvents = type: physicochemical
Gram-positive bacteria = test: Antibacterial activity against Gram-positive bacteria (summary); type: cell-based
[10] = system: Vesicular stomatitis virus (VSV); test: microbe, parasite or virus in culture; type: cell-based; conditions: 48 h, read-out: 50% Effective Dose (ED50)
[11] = Toxicity testing, intraperitoneal injection; conditions: mouse, in vivo, ip, mice
Description: The toxicity testing of the antibiotic AM-2604-A substance was performed using mice by the intraperitoneal injection method.

[12] = system: Newcastle disease virus (NDV); test: microbe, parasite or virus in culture; type: cell-based; conditions: avian paramyxovirus 1, 96 h; read-out: 50% Effective Dose (ED50)
fungi [13] = test: Antifungal activity (summary); type: cell-based
DNA or RNA viruses = test: Antiviral activity (summary); type: cell-based, virus
[14] = system: DIE strain of vaccinia virus (Vac-DIE); test: microbe, parasite or virus in culture; type: cell-based; conditions: Orthopoxvirus vaccinia, 96 h; read-out: 50% Effective Dose (ED50)
[15] = system: IHD strain of vaccinia virus (Vac-IHD); test: microbe, parasite or virus in culture; type: cell-based; conditions: Orthopoxvirus vaccinia, 96 h; read-out: 50% Effective Dose (ED50)
Gram-negative bacteria = test: Antibacterial activity against Gram-negative bacteria (summary); type: cell-based
Eimeria tenella = test: Effectiveness on coccidium-infected chicken; type: in vivo, white leghorn male chicks infected with Eimeria tenella; conditions: for Disorder of Cecum, grade - (Normal): chicks per group with grade -; for Disorder of Cecum, grade ± (Minor): chicks per group with grade ±; for Ratio of Increment of Weight: non-infected control = 1.00
Description: The potency of the antibiotic substance on coccidium-infected chickens was determined as follows:
Two-week-old white leghorn male chicks were divided into four groups of ten each. The feed used in this assay was a commercially available chick-breeding standard feed (major components: 19% crude protein, 2.5% crude fat, 5.0% crude fiber, 8.0% crude ash, 0.7% calcium, and 0.55% phosphorus).
One day after the start of feeding, 2×10^4 mature oocysts of Eimeria tenella per chick were orally administered to the chicks of the groups (Groups 1, 2 and 3) except for a non-infected control group (Group 4). Thereafter, the chicks of Groups 1 and 2 were bred by feeding the standard feed containing 0.005% and 0.0l% of the antibiotic substance, respectively, and Groups 3 and 4 were bred by feeding only the standard feed.
During the breeding period, the weight of each chick was measured, and the blood in the feces was observed. Furthermore, the number of oocysts in the feces 7 days after the infection of the oocysts were counted, and the disorder of cecum was examined by necropsy. In this way, the anti-coccidium action of the antibiotic substance was determined.
The items in Table 3 are as follows: [formula]
The amount of blood from the intestine of the chick is judged from the number of blood stains.
+ Minor, but slight disorder is observed.
++ Moderate hypertrophy is observed.
+++ Serious (disorder is very significant)
Number of oocysts per gram of the feces 7 days after the infection

fungi [16] = conditions: known antibiotic substances, literature; cited from earlier work
[17] = drug amount administered 4 mg/kg
[18] = drug amount administered 8 mg/kg

C/C=C/C1OC(O)(C(C)C(O)C(C)C2OC(=O)C(OC)=CC(C)=CC(C)C(O)C(CC)C(O)C(C)CC(C)=CC=CC2OC)CC(OC(=O)/C=C/C(=O)NC2=C(O)CCC2=O)C1C (stereo not shown) [AM-2604-A]
EC50 [1]: 0.0003 µg/mL (≈ 0.000339 µM)
EC50 [2]: 0.0003 µg/mL (≈ 0.000339 µM)
Number of Mice That Died (Trichomonas foetus; [17]): 2/10
Cured Mice (Trichomonas foetus; [17]): 5/10
Living Mice with Formation of Ascites (Trichomonas foetus; [17]): 2/10
Mice with Trichomonas foetus (Trichomonas foetus; [17]): 5/10
Number of Mice That Died (Trichomonas foetus; [18]): 1/10
Cured Mice (Trichomonas foetus; [18]): 8/10
Living Mice with Formation of Ascites (Trichomonas foetus; [18]): 1/10
Mice with Trichomonas foetus (Trichomonas foetus; [18]): 2/10
anti-trichomonas action (in words) (Trichomonas foetus; summary of Table 4): excellent anti-trichomonas action; also recorded: active
EC50 [3]: 0.0003 µg/mL (≈ 0.000339 µM)
MIC (Xanthomonas oryzae): > 50 µg/mL
MIC (Piricularia oryzae): 12.5 µg/mL (≈ 14.1 µM)
EC50 (Sindbis virus (Sb)): 0.0005 µg/mL (≈ 0.000564 µM)
MIC [4]: > 100 µg/mL
MIC (Microsporum gypseum): 50 µg/mL (≈ 56.4 µM)
MIC [5]: > 100 µg/mL
MIC [6]: 50 µg/mL (≈ 56.4 µM)
MIC (Escherichia coli NIHJ): > 100 µg/mL
MIC (Aspergillus niger): > 100 µg/mL
MIC (Candida albicans): > 100 µg/mL
MIC (Monilinia fructicola): 12.5 µg/mL (≈ 14.1 µM)
MIC (Saccharomyces sake): 100 µg/mL (≈ 113 µM)
MIC [7]: > 100 µg/mL
MIC [8]: > 100 µg/mL
MIC (Fusarium oxysporum): > 100 µg/mL
MIC (Botrytis cinerea): > 50 µg/mL
MIC (Mucor racemosus): 50 µg/mL (≈ 56.4 µM)
MIC (Alternaria kikuchiana): > 50 µg/mL
MIC [9]: > 100 µg/mL
Solubility in organic solvents such as chloroform, acetone, and ethyl acetate (Solubility in solvents; chloroform, acetone, ethyl acetate): Soluble
Solubility in lower alcohols (Solubility in solvents; lower alcohols): sparingly soluble
Solubility in n-hexane and water (Solubility in solvents; n-hexane and water): insoluble
activity against Gram-positive bacteria (in words) (Gram-positive bacteria): little antibacterial activity; also recorded: almost inactive
EC50 [10]: 0.0003 µg/mL (≈ 0.000339 µM)
LD50 [11]: 3 mg/kg
EC50 [12]: 0.0003 µg/mL (≈ 0.000339 µM)
activity against fungi (in words) (fungi [13]): active
activity against viruses (in words) (DNA or RNA viruses): high inhibitory activity; also recorded: active
EC50 [14]: 0.0003 µg/mL (≈ 0.000339 µM)
EC50 [15]: 0.0003 µg/mL (≈ 0.000339 µM)
activity against Gram-negative bacteria (in words) (Gram-negative bacteria): little antibacterial activity
Increment of Weight (Eimeria tenella; Group 1, 0.005% in feed): 1.83
Disorder of Cecum, grade + (Minor, but slight disorder is observed) (Eimeria tenella; Group 1, 0.005% in feed, chicks per group with grade +): 1/10
Disorder of Cecum, grade - (Normal) (Eimeria tenella; Group 1, 0.005% in feed): 8/10
Disorder of Cecum, grade ± (Minor) (Eimeria tenella; Group 1, 0.005% in feed): 1/10
Ratio of Increment of Weight (Eimeria tenella; Group 1, 0.005% in feed): 0.99
Increment of Weight (Eimeria tenella; Group 2, 0.01% in feed): 1.86
Number of Oocysts (on the average) (Eimeria tenella; Group 2, 0.01% in feed, 7 days after the infection): 0 per gram of the feces
Disorder of Cecum, grade - (Normal) (Eimeria tenella; Group 2, 0.01% in feed): 9/10
Disorder of Cecum, grade ± (Minor) (Eimeria tenella; Group 2, 0.01% in feed): 1/10
Ratio of Increment of Weight (Eimeria tenella; Group 2, 0.01% in feed): 1.01
anticoccidium action (in words) (Eimeria tenella; summary of Table 3): excellent anticoccidium action; also recorded: active

COC1=CC(C)=CC(C)C(O)C(C)CC(C)=CC=CC(OC)C(C(C)C(O)C(C)C2(O)CC(OC(=O)/C=C/C(=O)NC3=C(O)CCC3=O)C(C)C(C(C)C)O2)OC1=O (stereo not shown) [Setamycin]
activity against fungi of known antibiotics (in words) (fungi [16]): active
